Assay results from US20070197509A1, “Compositions and methods for modulating gated ion channels” (PainCeptor Pharma Corporation, priority 2005, published 2007).
Entries after “also recorded” stand apart in the source; their conditions may differ. Like-named read-outs stand apart in the source and are kept apart here.

Target: T1, hASIC1a (Homo sapiens, UniProt P78348)
T1 sequence (P78348 1-528): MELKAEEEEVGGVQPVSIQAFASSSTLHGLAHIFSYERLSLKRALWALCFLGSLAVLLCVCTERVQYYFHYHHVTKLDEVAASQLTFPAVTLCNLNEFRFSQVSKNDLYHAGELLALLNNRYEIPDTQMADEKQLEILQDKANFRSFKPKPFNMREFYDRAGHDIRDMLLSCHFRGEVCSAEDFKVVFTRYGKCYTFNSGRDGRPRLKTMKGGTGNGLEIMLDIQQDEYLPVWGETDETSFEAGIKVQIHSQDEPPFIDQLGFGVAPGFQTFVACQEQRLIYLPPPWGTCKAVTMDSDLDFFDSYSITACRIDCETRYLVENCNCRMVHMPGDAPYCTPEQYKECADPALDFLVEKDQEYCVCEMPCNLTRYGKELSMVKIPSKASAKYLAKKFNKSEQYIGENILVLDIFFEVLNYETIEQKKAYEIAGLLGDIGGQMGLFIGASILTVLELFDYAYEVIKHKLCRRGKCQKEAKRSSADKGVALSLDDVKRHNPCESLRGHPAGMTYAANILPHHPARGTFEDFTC
Experiment: Two-electrode voltage clamp in Xenopus laevis oocytes expressing hASIC1a (OpusExpress)
Type: cell-based
Set-up: expressed in transfected cells; host or cells: Xenopus laevis oocytes, nuclear microinjection of cDNA (e.g. in pCDNA3)
Settings: for effect on hASIC1a current evoked by pH 6.5 in oocytes (FIGS. 4A-4D): two-electrode voltage clamp, dose-response
Description: Two-electrode voltage clamp electrophysiological assays in Xenopus laevis oocytes expressing gated ion channels are performed as follows:
Oocytes are surgically removed from adult Xenopus laevis and treated for 2 h at room temperature with 1 mg/ml type I collagenase (Sigma) in Barth's solution under mild agitation. Selected oocytes at stage IV-V are defolliculated manually before nuclear microinjection of 2.5-5 ng of a suitable expression vector, such as pCDNA3, comprising the nucleotide sequence encoding a gated ion channel subunit protein. In such an experiment, the oocytes express homomultimeric proton-gated ion channels on their surface. In an alternate experiment, one, two, three or more vectors comprising the coding sequences for distinct gated ion channel subunits are co-injected in the oocyte nuclei. In the latter case, oocytes express heteromultimeric proton-gated ion channels. […] Once impaled with the microelectrodes, oocytes are continuously superfused at 10-12 ml/min with a modified Ringer's solution containing 97 mM NaCl, 2 mM KCl, 1.8 mM CaCl2, and 10 mM HEPES brought to pH 7.4 with NaOH (Control Ringer). Test Ringer solution is prepared by replacing HEPES with MES and adjusting the pH to the desired acidic value. Compounds of the present invention are prepared in both the Control and Test Ringer solutions and applied to oocytes at room temperature through a computer-controlled switching valve system. […] Similarly, recordings can also be acquired in an automated multichannel oocytes system as the OpusExpress™ (Molecular Devices, Sunnyvale, Calif., USA).
Recordings were acquired from oocytes expressing homomeric hASIC1a using a two-electrode voltage-clamp configuration procedure as described herein.

[1] = OpusExpress (OX), Tables A-F, h1a printed in some cells only, read-out: Biological Data (IC50 uM) h1a (OX)
[2] = OpusExpress (OX), Tables A-F, h1a printed in some cells only
[3] = Table H, read-out: IC50 (μM) Opus Express (h1a)

Structure (SMILES) | IC50 [1] [µM] | Biological Data (IC50 uM) h1a (OX) [2] | other results
Cc1cc(OCCCN(C)Cc2ccccc2)c2ccccc2n1 [Compound 1, benzyl-methyl-[3-(2-methyl-quinolin-4-yloxy)-propyl]-amine] | > 30 |  | 
Cc1cc(OC2CCN(CCc3ccccc3)CC2)c2ccccc2n1 [Compound 2, 2-methyl-4-(1-phenethyl-piperidin-4-yloxy)-quinoline] | > 30 |  | 
c1ccc(CN2CCC(Oc3cc(-c4ccccc4)nc4ccccc34)CC2)cc1 [Compound 3, 4-(1-benzyl-piperidin-4-yloxy)-2-phenyl-quinoline] |  | Not Active (OX) | 
Cc1cc(OC2CCN(C)CC2)c2ccccc2n1 [Compound 4, 2-methyl-4-(1-methyl-piperidin-4-yloxy)-quinoline] | > 30 |  | 
Cc1cc(OC2CCN(Cc3ccc(Cl)cc3)CC2)c2ccccc2n1 [Compound 5, 4[1-(4-chloro-benzyl)-piperidin-4-yloxy]-2-methyl-quinoline] |  |  | approx. % at 30 uM (OX) (30 uM, OpusExpress, kind of effect not given): approx. 15% at 30 uM (OX)
Cc1cc(OC2CCN(C(=O)c3ccccc3)CC2)c2ccccc2n1 [Compound 6, [4-(2-methyl-quinolin-4-yloxy)-piperidin-1-yl]-phenyl-methanone] |  | Not Active (OX) | 
Cc1cc(OC2CCN(Cc3ccccc3)CC2)c2cc(Br)ccc2n1 [Compound 7, 4-(1-benzyl-piperidin-4-yloxy)-6-bromo-2-methyl-quinoline] | 10 to 20 |  | effect on hASIC1a current evoked by pH 6.5 in oocytes (FIGS. 4A-4D) (OpusExpress): effective modulators; also recorded: dose-dependent reduction; IC50 [3]: 13.2 µM
COc1ccc2nc(C)cc(OC3CCN(Cc4ccccc4)CC3)c2c1 [Compound 8, 4-(1-benzyl-piperidin-4-yloxy)-6-methoxy-2-methyl-quinoline] | > 30 |  | 
Cc1cc(OC2CCN(Cc3ccccc3)CC2)c2cccc(F)c2n1 [Compound 24, 4-(1-benzyl-piperidin-4-yloxy)-8-fluoro-2-methyl-quinoline] |  |  | IC50 [3]: 1.25 µM
CCc1nc(N(C)C2CCN(Cc3ccccc3)CC2)c2ccccc2n1 [Compound 32, (1-benzyl-piperidin-4-yl)-(2-ethyl-quinazolin-4-yl)-methyl-amine] | 15 to 25 |  | effect on hASIC1a current evoked by pH 6.5 in oocytes (FIGS. 4A-4D) (OpusExpress): effective modulators; also recorded: dose-dependent reduction; IC50 [3]: 20.7 µM

More lines, main results first:

IC50 [1] [µM] | Biological Data (IC50 uM) h1a (OX) [2] | Structure (SMILES) | other results
 | Not Active (OX) | Cc1cc(OC2CCN(Cc3ccccc3)CC2)c2ccc(Cl)cc2n1 [Compound 9, 4-(1-benzyl-piperidin-4-yloxy)-7-chloro-2-methyl-quinoline] | 
 | Not Active (OX) | FC(F)(F)c1cc(OC2CCN(Cc3ccccc3)CC2)c2cccc(C(F)(F)F)c2n1 [Compound 10, 4-(1-benzyl-piperidin-4-yloxy)-2,8-bis-trifluoromethyl-quinoline] | 
 | Not Active (OX) | Clc1ccc2c(OC3CCN(Cc4ccccc4)CC3)ccnc2c1 [Compound 11, 4-(1-benzyl-piperidin-4-yloxy)-7-chloro-quinoline] | 
 | Not Active (OX) | Cc1cc(OC2CCN(C(=O)OC(C)(C)C)CC2)c2ccccc2n1 [Compound 12, 4-(2-methyl-quinolin-4-yloxy)-piperidine-1-carboxylic acid tert butyl ester] | 
20 to 35 |  | FC(F)(F)c1cc(OC2CCN(Cc3ccccc3)CC2)c2ccccc2n1 [Compound 13, 4-(1-benzyl-piperidin-4-yloxy)-2-trifluoromethyl-quinoline] | IC50 [3]: 27.6 µM
 | Not Active (OX) | Cc1cc(OC2CCN(Cc3ccccc3)CC2)c2cccc(C)c2n1 [Compound 14, 4-(1-benzyl-piperidin-4-yloxy)-2,8-dimethyl-quinoline] | 
 | Not Active (OX) | Cc1cc(OC2CCN(CC(C)(C)C)CC2)c2ccccc2n1 [Compound 15, 4-[1-(2,2-dimethyl-propyl)-piperidin-4-yloxy]-2-methyl-quinoline] | 
> 30 |  | Cc1cc(OC2CCN(CC(C)C)CC2)c2ccccc2n1 [Compound 29, 4-(1-isobutyl-piperidin-4-yloxy)-2-methyl-quinoline] | 
